Measurements published in patent publication US12497365B2, “4-pyridinyl formamide compound or derivative thereof, preparation method therefor, herbicidal composition and use thereof” (Qingdao Kingagroot Chemical Compound Co., Ltd., priority 2019, dated 2025).

What was measured:
Assay in all cases: Weeding effect in post-emergence stage
Format in all cases: in vivo
Conditions in all cases: active ingredient 2000 g/ha, 3 weeks after application, fresh weight control rate
[1] = tested on: Amaranthus retroflexus L.
Procedure, shortened: (§1)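 Greenhouse-grown weeds at the 2-3 leaf stage, about 2 weeks after sowing, were sprayed with compound at 2000-125 g/ha. The spray solution was made from acetone with Tween 80 and 1.5 L/ha methyl oleate concentrate as synergist. Fresh-weight growth control was scored 3 weeks after treatment.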

[2] = tested on: Chenopodium album
Procedure, shortened: as §1

[3] = tested on: Abutilon theophrasti
Procedure, shortened: as §1

[4] = tested on: Descurainia sophia
Procedure, shortened: as §1

Row | Structure (SMILES) | Weeding effect, activity level (growth control rate), Amaranthus retroflexus L. [1] | Weeding effect, activity level (growth control rate), Chenopodium album [2] | Weeding effect, activity level (growth control rate), Abutilon theophrasti [3] | Weeding effect, activity level (growth control rate), Descurainia sophia [4]
1 | Cn1nnnc1NC(=O)c1ccnc(-c2cn[nH]c2)c1Cl [Compound 1-167] | 5 (Level 5: growth control rate is above 85%) | 5 (Level 5: growth control rate is above 85%) | 5 (Level 5: growth control rate is above 85%) | 5 (Level 5: growth control rate is above 85%)
2 | Cn1nnnc1NC(=O)c1ccnc(-c2ccc(F)cc2F)c1Cl [Compound 1-64] | 5 (Level 5: growth control rate is above 85%) | 5 (Level 5: growth control rate is above 85%) | 5 (Level 5: growth control rate is above 85%) | 5 (Level 5: growth control rate is above 85%)
3 | Cn1nnnc1NC(=O)c1ccnc(-c2ccc(F)cc2)c1Br [Compound 1-196] | 5 (Level 5: growth control rate is above 85%) | 5 (Level 5: growth control rate is above 85%) | 5 (Level 5: growth control rate is above 85%) | 5 (Level 5: growth control rate is above 85%)
4 | Cn1nnnc1NC(=O)c1ccnc(-c2cc(F)cc(F)c2)c1Cl [Compound 1-65] | 5 (Level 5: growth control rate is above 85%) | 5 (Level 5: growth control rate is above 85%) | 5 (Level 5: growth control rate is above 85%) | 5 (Level 5: growth control rate is above 85%)
5 | Cn1nnnc1NC(=O)c1ccnc(-c2ccc(F)cc2)c1OCC(F)(F)F [Compound 1-202] | 5 (Level 5: growth control rate is above 85%) | 5 (Level 5: growth control rate is above 85%) | 5 (Level 5: growth control rate is above 85%) | 5 (Level 5: growth control rate is above 85%)
6 | COc1ccc(-c2nccc(C(=O)Nc3nnnn3C)c2Cl)c(Cl)c1 [Compound 1-102] | 5 (Level 5: growth control rate is above 85%) | 5 (Level 5: growth control rate is above 85%) | 5 (Level 5: growth control rate is above 85%) | 5 (Level 5: growth control rate is above 85%)
7 | Cn1nnnc1NC(=O)c1ccnc(-c2ccc(C(F)(F)F)cc2)c1Cl [Compound 1-27] | 5 (Level 5: growth control rate is above 85%) | 5 (Level 5: growth control rate is above 85%) | 5 (Level 5: growth control rate is above 85%) | 5 (Level 5: growth control rate is above 85%)
8 | CC[S+]([O-])c1c(C(=O)Nc2nnnn2C)ccnc1-c1ccc(F)cc1 (stereo not shown) [Compound 1-206] | 5 (Level 5: growth control rate is above 85%) | 5 (Level 5: growth control rate is above 85%) | 5 (Level 5: growth control rate is above 85%) | 5 (Level 5: growth control rate is above 85%)
9 | Cn1nnnc1NC(=O)c1ccnc(-c2cc3ccccc3o2)c1Cl [Compound 1-2010] | 5 (Level 5: growth control rate is above 85%) | 5 (Level 5: growth control rate is above 85%) | 5 (Level 5: growth control rate is above 85%) | 5 (Level 5: growth control rate is above 85%)
10 | Cn1nnnc1NC(=O)c1ccnc(-c2ccc(C(=O)OC(C)(C)C)cc2)c1Cl [Compound 1-41] | 5 (Level 5: growth control rate is above 85%) | 5 (Level 5: growth control rate is above 85%) | 5 (Level 5: growth control rate is above 85%) | 5 (Level 5: growth control rate is above 85%)
11 | Cn1nnnc1NC(=O)c1ccnc(-c2ccnc(F)c2)c1Cl [Compound 1-149] | 5 (Level 5: growth control rate is above 85%) | 5 (Level 5: growth control rate is above 85%) | 5 (Level 5: growth control rate is above 85%) | 5 (Level 5: growth control rate is above 85%)
12 | O=C(Nc1ccon1)c1ccnc(-c2ccc(F)cc2)c1Cl [Compound 1-1286] | 5 (Level 5: growth control rate is above 85%) | 5 (Level 5: growth control rate is above 85%) | 5 (Level 5: growth control rate is above 85%) | 5 (Level 5: growth control rate is above 85%)
13 | Cc1cc(-c2nccc(C(=O)Nc3nnnn3C)c2Cl)n(C)n1 [Compound 1-179] | 5 (Level 5: growth control rate is above 85%) | 5 (Level 5: growth control rate is above 85%) | 5 (Level 5: growth control rate is above 85%) | 5 (Level 5: growth control rate is above 85%)
14 | CCC[S+]([O-])c1nccc(C(=O)Nc2nnnn2C)c1Cl (stereo not shown) [Compound 1-2070] | 5 (Level 5: growth control rate is above 85%) | 5 (Level 5: growth control rate is above 85%) | 5 (Level 5: growth control rate is above 85%) | 5 (Level 5: growth control rate is above 85%)
15 | Cn1nnnc1NC(=O)c1ccnc(-c2ccc(F)cc2)c1SCCl [Compound 1-211] | 5 (Level 5: growth control rate is above 85%) | 5 (Level 5: growth control rate is above 85%) | 5 (Level 5: growth control rate is above 85%) | 5 (Level 5: growth control rate is above 85%)
16 | Cc1cc(C)cc(-c2nccc(C(=O)Nc3nnnn3C)c2Cl)c1 [Compound 1-60] | 5 (Level 5: growth control rate is above 85%) | 5 (Level 5: growth control rate is above 85%) | 5 (Level 5: growth control rate is above 85%) | 5 (Level 5: growth control rate is above 85%)
17 | Cn1nnnc1NC(=O)c1ccnc(-c2ccc(C#N)cc2F)c1Cl [Compound 1-78] | 5 (Level 5: growth control rate is above 85%) | 5 (Level 5: growth control rate is above 85%) | 5 (Level 5: growth control rate is above 85%) | 5 (Level 5: growth control rate is above 85%)
18 | Cn1nnnc1NC(=O)c1ccnc(-c2ccc(C(F)(F)F)cc2F)c1Cl [Compound 1-74] | 5 (Level 5: growth control rate is above 85%) | 5 (Level 5: growth control rate is above 85%) | 5 (Level 5: growth control rate is above 85%) | 5 (Level 5: growth control rate is above 85%)
19 | Cn1nnnc1NC(=O)c1ccnc(-c2ccc(Br)nc2F)c1Cl [Compound 1-140] | 5 (Level 5: growth control rate is above 85%) | 5 (Level 5: growth control rate is above 85%) | 5 (Level 5: growth control rate is above 85%) | 5 (Level 5: growth control rate is above 85%)
